According to ChEMBL document CHEMBL5365484, “Discovery and Characterization of Novel CNS-Penetrant GPR55 Agonists” (J Med Chem, 2023):
Calls of active or inactive are those of the source. No cut-off for these calls is given here.

Legend:
[1] = biological target: G-protein coupled receptor 55 (Homo sapiens, UniProt Q9Y2T6); experiment: Agonist activity at human GPR55 expressed in human HEK293 cells assessed as effect on calcium flux incubated for 5 mins by FLIPR analysis; type: functional, cell-based
[2] = Metabolic stability in rat liver microsomes assessed as intrinsic clearance at 1 uM preincubated for 60 mins followed by NADPH addition and measured after 60 mins by LC-MS/MS analysis; type: ADME, Microsome; conditions: time 120 min, read-out: CLH
[3] = Agonist activity at rat GPR55 expressed in human HEK293 cells assessed as effect on calcium flux incubated for 5 mins by FLIPR analysis; conditions: HEK293, 5 min
[4] = Toxicity in Wistar rat Striatal neuron assessed as cell viability at 1 uM; type: cell-based
[5] = system: Striatal neuron; experiment: Neurophysiological effect on Wistar rat Striatal neuron assessed as decrease in potential firing frequency at 1 uM and measured after 3 mins by Whole-cell patch clamp assay; type: functional, cell-based
[6] = system: Rattus norvegicus; experiment: Effect on haloperidol-induced […] activity in Sprague-Dawley rat model assessed as locomotor activity at 3 mg/kg, po and measured after 60 mins; type: functional, organism-based

Sequence of G-protein coupled receptor 55 (Q9Y2T6 whole entry): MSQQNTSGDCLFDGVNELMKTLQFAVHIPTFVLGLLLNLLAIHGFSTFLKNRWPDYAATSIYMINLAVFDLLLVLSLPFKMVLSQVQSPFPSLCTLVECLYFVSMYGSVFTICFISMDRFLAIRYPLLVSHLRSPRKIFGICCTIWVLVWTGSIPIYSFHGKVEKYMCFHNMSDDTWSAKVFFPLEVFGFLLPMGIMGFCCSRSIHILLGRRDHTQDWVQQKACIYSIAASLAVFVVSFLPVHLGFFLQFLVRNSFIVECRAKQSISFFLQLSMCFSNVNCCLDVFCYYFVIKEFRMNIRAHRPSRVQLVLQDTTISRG

Row | SMILES | EC50 [1] [nM] | microsomal CLint at 1 µM [2] [µL/min/mg] | EC50 [3] [nM] | also measured
1 | C[C@@H](Nc1ccc(-c2cncc(S(C)(=O)=O)c2)cn1)c1ccc(F)cc1 | 85.1 | 3.8 | 716 | 
2 | C[C@@H](Nc1ccc(-c2cncc(C3CC3)c2)cn1)c1ccc(F)cc1 | 13.8 | 10 | 514 | 
3 | C[C@@H](Nc1cnc(-c2cncc(CC(F)F)c2)cn1)c1ccc(F)cc1 | 0.439 | 16 | 4.13 | Activity [4]: Non-Toxic; Activity [5]: Active
4 | Cc1cncc(-c2ccc(N[C@H](C)c3ccc(F)cc3)nc2)c1 |  | 234 |  | 
5 | C[C@@H](Nc1ccc(-c2ccc3oc(=O)[nH]c3c2)cn1)c1ccc(F)cc1 | 573 |  | 2400 | 
6 | CCc1cncc(-c2ccc(N[C@H](C)c3ccc(F)cc3)nc2)c1 |  | 48 |  | 
7 | CCn1c(=O)c2c(nc(/C=C/c3ccc(OC)c(OC)c3)n2C)n(CC)c1=O |  |  |  | Activity [6]: Active

Second part, led by results:

Row | EC50 [1] [nM] | microsomal CLint at 1 µM [2] [µL/min/mg] | EC50 [3] [nM] | SMILES | also measured
8 |  | 2 |  | C[C@@H](Nc1ccc(-c2cncc(S(C)(=N)=O)c2)cn1)c1ccc(F)cc1 (stereo not given in full) | 
9 |  | 5.2 |  | C[C@@H](Nc1ccc(-c2cncc(C(F)(F)F)c2)cn1)c1ccc(F)cc1 | 
10 |  | 3.9 |  | C[C@@H](Nc1ccc(-c2ccc3oc(=O)n(C)c3c2)cn1)c1ccc(F)cc1 | 
11 | 427 |  | 3510 | C[C@@H](Nc1ccc(-c2cnn(C)c2)cn1)c1ccc(F)cc1 | 
12 | 3.01 | 78 | 32.5 | CCc1cncc(-c2cnc(N[C@H](C)c3ccc(F)cc3)cn2)c1 | 
13 |  | 6.4 |  | C[C@@H](Nc1ncc(-c2cncc(CC(F)(F)F)c2)nn1)c1ccc(F)cc1 | 
